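Following 48 hours of exposure in 96-well plates, responses at five concentrations were used to interpolate endpoints linearly. GI50 = concentration required for 50% inhibition of growth.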 Calls of active or inactive are those of the source. Rule as the data show it: active = GI50 up to about 1.1 µM and inactive = higher.
Key:
Test in all cases: NCI-60 cell line screen, 48 h
A549 = system: A549
SK-MEL-2 = system: SK-MEL-2
M14 = system: M14
DU-145 = system: DU-145
BT-549 = system: BT-549
TK-10 = system: TK-10
UACC-257 = system: UACC-257
SF-295 = system: SF-295
HOP-62 = system: HOP-62
OVCAR-5 = system: OVCAR-5
MDA-N = system: MDA-N
NCI-H23 = system: NCI-H23
A498 = system: A498
MDA-MB-231 = system: MDA-MB-231
T47D = system: T47D
MDA-MB-435 = system: MDA-MB-435
KM12 = system: KM12
UACC-62 = system: UACC-62
SK-MEL-28 = system: SK-MEL-28
786-0 = system: 786-0
OVCAR-8 = system: OVCAR-8
HCC 2998 = system: HCC 2998
OVCAR-4 = system: OVCAR-4
SF-539 = system: SF-539
SN12C = system: SN12C
Malme-3M = system: Malme-3M
SNB-19 = system: SNB-19
NCI-H226 = system: NCI-H226
LOX IMVI = system: LOX IMVI
NCI/ADR-RES = system: NCI/ADR-RES
Hs-578T = system: Hs-578T
CCRF-CEM = system: CCRF-CEM
SF-268 = system: SF-268
COLO 205 = system: COLO 205
SW-620 = system: SW-620
RPMI-8226 = system: RPMI-8226
HCT-116 = system: HCT-116
NCI-H522 = system: NCI-H522
MOLT-4 = system: MOLT-4
U-251 = system: U-251
PC-3 = system: PC-3
ACHN = system: ACHN
EKVX = system: EKVX
UO-31 = system: UO-31
HCT-15 = system: HCT-15
MCF7 = system: MCF7
CAKI-1 = system: CAKI-1
IGROV-1 = system: IGROV-1
RXF 393 = system: RXF 393
SK-MEL-5 = system: SK-MEL-5
SNB-75 = system: SNB-75
NCI-H460 = system: NCI-H460
HT-29 = system: HT-29
OVCAR-3 = system: OVCAR-3
SK-OV-3 = system: SK-OV-3
HL-60 = system: HL-60
HOP-92 = system: HOP-92
K562 = system: K562
SR = system: SR

In the case of [N-]=[N+]=NC1(c2ccccc2)C(=O)c2cccc3c4ccccc4n(c23)C1=O (stereo unspecified), the GI50 (A549) is reported as 76.2 µM (inactive), the GI50 (SK-MEL-2) is reported as > 100 µM (inactive) and the GI50 (M14) is reported as > 100 µM (inactive). The GI50 (DU-145) was > 100 µM (inactive), the GI50 (BT-549) was > 100 µM (inactive) and the GI50 (TK-10) was > 100 µM (inactive). For the same molecule, the GI50 (UACC-257) was > 100 µM (inactive), the GI50 (SF-295) was 57.8 µM (inactive) and the GI50 (HOP-62) was > 100 µM (inactive). The GI50 (OVCAR-5) was > 100 µM (inactive), the GI50 (MDA-N) was 34.4 µM (inactive) and the GI50 (NCI-H23) was 52.2 µM (inactive). The GI50 (A498) was > 100 µM (inactive), the GI50 (MDA-MB-231) was > 100 µM (inactive) and the GI50 (T47D) was > 100 µM (inactive). For the same molecule, the GI50 (MDA-MB-435) was 27.9 µM (inactive), the GI50 (KM12) was 53.1 µM (inactive) and the GI50 (UACC-62) was 50 µM (inactive). The GI50 (SK-MEL-28) was > 100 µM (inactive), the GI50 (786-0) was > 100 µM (inactive) and the GI50 (OVCAR-8) was > 100 µM (inactive). The GI50 (HCC 2998) was > 100 µM (inactive), the GI50 (OVCAR-4) was > 100 µM (inactive) and the GI50 (SF-539) was > 100 µM (inactive). For the same molecule, the GI50 (SN12C) was > 100 µM (inactive), the GI50 (Malme-3M) was > 100 µM (inactive) and the GI50 (SNB-19) was > 100 µM (inactive). For the same molecule, the GI50 (NCI-H226) was > 100 µM (inactive), the GI50 (LOX IMVI) was > 100 µM (inactive) and the GI50 (NCI/ADR-RES) was 33.5 µM (inactive). For the same molecule, the GI50 (Hs-578T) was > 100 µM (inactive), the GI50 (CCRF-CEM) was 64.3 µM (inactive) and the GI50 (SF-268) was > 100 µM (inactive). The GI50 (COLO 205) was 6.5 µM (inactive), the GI50 (SW-620) was > 100 µM (inactive) and the GI50 (RPMI-8226) was 45.3 µM (inactive). The GI50 (HCT-116) was 84.3 µM (inactive), the GI50 (NCI-H522) was 45.6 µM (inactive) and the GI50 (MOLT-4) was 98.4 µM (inactive). The GI50 (U-251) was > 100 µM (inactive), the GI50 (PC-3) was > 100 µM (inactive) and the GI50 (ACHN) was > 100 µM (inactive). The GI50 (EKVX) was 92.3 µM (inactive), the GI50 (UO-31) was > 100 µM (inactive) and the GI50 (HCT-15) was greater than 100 µM. The GI50 (MCF7) was 54 µM (inactive), the GI50 (CAKI-1) was > 100 µM (inactive) and the GI50 (IGROV-1) was > 100 µM (inactive). For the same molecule, the GI50 (RXF 393) was > 100 µM (inactive), the GI50 (SK-MEL-5) was > 100 µM (inactive) and the GI50 (SNB-75) was > 100 µM (inactive). For the same molecule, the GI50 (NCI-H460) was > 100 µM (inactive), the GI50 (HT-29) was 18.4 µM (inactive) and the GI50 (OVCAR-3) was 46.3 µM (inactive). For the same molecule, the GI50 (SK-OV-3) was > 100 µM (inactive) and the GI50 (HL-60) was < 0.01 µM (active).
For Cc1ccc(/C=C2\Cc3c(C)cc(C)cc3C2=O)c(C(=O)O)c1, the GI50 (A549) was 49.9 µM (inactive), the GI50 (SK-MEL-2) was 24.4 µM (inactive) and the GI50 (M14) was > 100 µM (inactive). For the same molecule, the GI50 (DU-145) was 51.5 µM (inactive), the GI50 (HOP-92) was 36.1 µM (inactive) and the GI50 (K562) was 54.7 µM (inactive). For the same molecule, the GI50 (BT-549) was 28.6 µM (inactive), the GI50 (TK-10) was 83.4 µM (inactive) and the GI50 (UACC-257) was 61.8 µM (inactive). For the same molecule, the GI50 (SF-295) was 41.9 µM (inactive), the GI50 (HOP-62) was 83.4 µM (inactive) and the GI50 (SR) was 29.4 µM (inactive). The GI50 (OVCAR-5) was 33.2 µM (inactive), the GI50 (MDA-N) was 89.3 µM (inactive) and the GI50 (NCI-H23) was 55.5 µM (inactive). The GI50 (A498) was 30.1 µM (inactive), the GI50 (T47D) was 82.2 µM (inactive) and the GI50 (MDA-MB-435) was 31.6 µM (inactive). For the same molecule, the GI50 (KM12) was 46.3 µM (inactive), the GI50 (UACC-62) was 41.1 µM (inactive) and the GI50 (SK-MEL-28) was 56.2 µM (inactive). The GI50 (786-0) was 61.5 µM (inactive), the GI50 (OVCAR-8) was 51.8 µM (inactive) and the GI50 (HCC 2998) was 38.4 µM (inactive). For the same molecule, the GI50 (OVCAR-4) was 34.7 µM (inactive), the GI50 (SF-539) was 15.9 µM (inactive) and the GI50 (SN12C) was 67.5 µM (inactive). For the same molecule, the GI50 (Malme-3M) was 72.3 µM (inactive), the GI50 (SNB-19) was 44.5 µM (inactive) and the GI50 (NCI-H226) was 23.8 µM (inactive). For the same molecule, the GI50 (LOX IMVI) was 22.6 µM (inactive), the GI50 (NCI/ADR-RES) was 90.6 µM (inactive) and the GI50 (Hs-578T) was 35.2 µM (inactive). The GI50 (CCRF-CEM) was 35.1 µM (inactive), the GI50 (SF-268) was 40.5 µM (inactive) and the GI50 (COLO 205) was 34.8 µM (inactive). The GI50 (SW-620) was 47.4 µM (inactive), the GI50 (RPMI-8226) was 19.3 µM (inactive) and the GI50 (HCT-116) was 49.4 µM (inactive). The GI50 (NCI-H522) was 78.9 µM (inactive), the GI50 (MOLT-4) was 35.5 µM (inactive) and the GI50 (U-251) was 29.9 µM (inactive). The GI50 (PC-3) was 41.9 µM (inactive), the GI50 (ACHN) was 59.6 µM (inactive) and the GI50 (EKVX) was 33.4 µM (inactive). The GI50 (UO-31) was 50.7 µM (inactive), the GI50 (HCT-15) was 36.3 µM and the GI50 (MCF7) was 56.2 µM (inactive). For the same molecule, the GI50 (CAKI-1) was > 100 µM (inactive), the GI50 (IGROV-1) was 79.8 µM (inactive) and the GI50 (RXF 393) was 39.9 µM (inactive). The GI50 (SK-MEL-5) was 25.8 µM (inactive), the GI50 (SNB-75) was 58.9 µM (inactive) and the GI50 (NCI-H460) was 48.2 µM (inactive). For the same molecule, the GI50 (HT-29) was 45.3 µM (inactive), the GI50 (OVCAR-3) was 31 µM (inactive) and the GI50 (HL-60) was 23.1 µM (inactive).
In the case of COC(=O)C1C(O)C(C)C(O)C(C)/C=C\C=C(C)C(=O)Nc2c(C)c(OC(C)=O)c3c(c2O)C(=O)C(C)=C2OCOC(=C23)C(C)=CC(C)(O)C(O)C(C)C1O (stereo unspecified), the GI50 (A549) is reported as > 100 µM (inactive), the GI50 (SK-MEL-2) is reported as 32.3 µM (inactive) and the GI50 (M14) is reported as 38.9 µM (inactive). The GI50 (DU-145) was > 100 µM (inactive), the GI50 (HOP-92) was 60.4 µM (inactive) and the GI50 (BT-549) was > 100 µM (inactive). The GI50 (TK-10) was > 100 µM (inactive), the GI50 (UACC-257) was 23 µM (inactive) and the GI50 (SR) was 96.4 µM (inactive). The GI50 (MDA-N) was 59.8 µM (inactive), the GI50 (MDA-MB-231) was 24.9 µM (inactive) and the GI50 (T47D) was 52.2 µM (inactive). For the same molecule, the GI50 (MDA-MB-435) was 68.4 µM (inactive), the GI50 (SK-MEL-28) was 47 µM (inactive) and the GI50 (786-0) was > 100 µM (inactive). For the same molecule, the GI50 (OVCAR-8) was 34 µM (inactive), the GI50 (SF-539) was > 100 µM (inactive) and the GI50 (Malme-3M) was 36.5 µM (inactive). For the same molecule, the GI50 (NCI-H226) was > 100 µM (inactive), the GI50 (Hs-578T) was > 100 µM (inactive) and the GI50 (SF-268) was 68.4 µM (inactive). The GI50 (COLO 205) was 20.4 µM (inactive), the GI50 (SW-620) was 35.5 µM (inactive) and the GI50 (HCT-116) was 30.3 µM (inactive). The GI50 (PC-3) was > 100 µM (inactive), the GI50 (ACHN) was > 100 µM (inactive) and the GI50 (UO-31) was 82.4 µM (inactive). For the same molecule, the GI50 (MCF7) was 35.6 µM (inactive), the GI50 (IGROV-1) was 87.1 µM (inactive) and the GI50 (SK-MEL-5) was 41.2 µM (inactive). The GI50 (HT-29) was 42.5 µM (inactive), the GI50 (OVCAR-3) was 24.3 µM (inactive) and the GI50 (HL-60) was 29.4 µM (inactive).

Reference: ChEMBL document CHEMBL1201862, “PubChem BioAssay data set” (2004)
